Consider three compounds from patent publication US20050059610A1 (priority 2003, published 2005).

Assay [1] concerns polymicrobial sepsis and peritonitis (CLP). Put plainly: CLP peritonitis/polymicrobial sepsis, GLN 30 minutes after induction, with or without quercetin. It counts as in vivo, rat. As to conditions: quercetin with GLN. From the text:
Cecal ligation and puncture (CLP) in the rat was chosen as the appropriate model.

Assay [2] relates to sepsis (CLP). Nature of the assay: CLP with or without quercetin (HSP 70 inhibitor): survival, lung HSP/NOS, metabolism, TNF. In kind it is in vivo, Sprague-Dawley rats. The settings on record: quercetin 400 mg/kg IP 6 hours pre-CLP. The protocol: Methods: Male Sprague-Dawley rats were divided into 5 groups. Two groups were treated with 400 mg/kg of quercetin (Q) IP (HSP 70 inhibitor) 6 hours pre-CLP. […] The final group (CONT, n=6) received no treatment. Five-day survival was monitored. In separate studies, lung was harvested 24-hours post-CLP and tissue metabolism analyzed by 31P- and 1H-MRS. A final study analyzed blood for TNF- at 6 hours post-CLP and lung tissue 6 hours post-CLP for HSP-70, iNOS, eNOS, and activated heat shock factor-1 (HSF-1).

Assay [3] concerns polymicrobial sepsis (CLP). Nature of the assay: Cecal ligation and puncture (CLP): lung and heart tissue metabolism by MRS, survival. It counts as in vivo, Sprague-Dawley rats. The settings on record: single large dose following onset of sepsis, CLP rat. How it is done: Survival was monitored for five days. In a separate group of animals (n=4/group), lung and heart tissue was harvested 24 hours post-CLP and tissue metabolism was analyzed by ^1H-MRS and ^31P-MRS.

In assay [4] the test system is polymicrobial sepsis (2CLP). Put plainly: Cecal-ligation and double-puncture (2CLP) sepsis: survival, cytokines, lung HSP 72. In kind it is in vivo, Sprague-Dawley rats. The text has this: Further, increased Interleukin-18 (IL-18) levels appear to play a critical role in cytokine-induced organ failure and can be predictive of mortality in sepsis patients.
Increased Interleukin-18 (IL-18) levels appear to play a critical role in cytokine-induced organ failure and can be predictive of mortality in sepsis patients.

For assay [5], the system named is myocardial ischemia/reperfusion injury. As to conditions: single dose 18 hours prior to myocardial injury, rat.
Assay [6] concerns congestive heart failure. As to conditions: 4 weeks of supplementation (Azuma et al 1983); cited from earlier work.

Where a SMILES comes first, the peptide text is derived from it.

Turning to `O=c1c(O)c(-c2ccc(O)c(O)c2)oc2cc(O)cc(O)c12` [Q, quercetin, reference compound], in assay [1], the “effect on GLN attenuation of tissue metabolic dysfunction” value is reported as “inhibited”; the “effect on GLN improvement of survival” value is on record as “inhibited”; the “effect on GLN-enhanced HSP 70 expression and HSF-1 activation” value is reported as “blocked”. Further, the “effect on TNF- or NOS expression” value in assay [2] is “No Q effect”. In assay [2] (with GLN), the “HSF-1 activation and subsequent HSP70 expression” value is reported as “Inhibition”; the “effect on GLN's improvements in lung tissue metabolic dysfunction” value is listed as “blocked”; the “effect on GLN's survival benefit” value is recorded as “abrogated”.

With `C[C@H](N)C(=O)N[C@@H](CCC(N)=O)C(=O)O` [alanyl-glutamine] (H-Ala-Gln-OH), the “cellular metabolism in the lung” value in assay [3] is reported as “improve”. Moreover, the “lung HSP 72 expression versus control” value in assay [4] (following 2CLP) is “restore normal heat shock protein expression”. Further, the inflammatory cytokine release result in assay [4] (single large dose following onset of sepsis, CLP rat) is “attenuate”. In addition, the “myocardial function following ischemia and reperfusion injury” value in assay [5] is reported as “improve myocardial function”.

Consider `NCCS(=O)(=O)O` [taurine], for which the “dyspnea, palpitation, crackles, edema, and New York Heart Association functional class” value in assay [6] is recorded as “highly significant improvement”.
